According to US10995068B2, “Synthetic sphingolipid-like molecules, drugs, methods of their synthesis and methods of treatment” (The Regents of the University of California, priority 2015, dated 2021):

Legend:
S1P receptor 4 = biological target: T1, S1P receptor 4 (Homo sapiens, UniProt O95977); experiment: S1P receptor activation in CHO cells, S1P4; assay type: cell-based; settings: CHO cells over-expressing human S1P4
T1 construct: expressed in transfected cells
T1 sequence (O95977 1-384): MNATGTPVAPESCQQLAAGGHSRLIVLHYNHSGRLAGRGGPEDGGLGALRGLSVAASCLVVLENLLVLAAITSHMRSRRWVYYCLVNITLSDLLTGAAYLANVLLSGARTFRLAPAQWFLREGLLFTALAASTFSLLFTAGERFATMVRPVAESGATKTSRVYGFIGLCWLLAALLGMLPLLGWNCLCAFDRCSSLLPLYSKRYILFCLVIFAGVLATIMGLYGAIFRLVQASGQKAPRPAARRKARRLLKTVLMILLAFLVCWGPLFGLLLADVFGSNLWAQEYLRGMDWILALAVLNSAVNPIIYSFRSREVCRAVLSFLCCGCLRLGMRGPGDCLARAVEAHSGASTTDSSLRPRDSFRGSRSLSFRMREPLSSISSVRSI
Text: (§1) Phosphorylation may have effects on S1P receptor activity that could cause bradycardia. Bradycardia, the dose-limiting toxicity that prevents the use of FTY720 in cancer patients, stems from FTY720-P's actions on S1P receptors 1 and 3. (Camm, J., et al. (2014) Am. Heart J. 168, 632-644; Cohen, J. A., Chun, J. (2011) Ann. Neurol. 69, 759-777; Sanna, M. G., et al. (2004) J. Biol. Chem. 279, 13839-13848; the disclosures of which are incorporated herein by reference). Phosphorylation by sphingosine kinase may make compounds competent to activate S1P receptors. FTY720, for example, when phosphorylated is known to activate S1P receptors 1 and 3. Because compound 5 could be phosphorylated, the activity of compound 5 and its phosphate 5-P (FIG. 28) on S1P receptors was evaluated (FIG. 32).
(§2) 51P1-5 activation: Chinese hamster ovary (CHO) cells stably over-expressing the different human 51P receptor subtypes are used. S1P1, S1P4 and S1P5 overexpressing CHO cells are cultured in medium containing alpha-MEM supplemented with 10% FBS, 50 μg/ml gentamycin and 0.5 mg/ml G418. S1P2 and S1P3 overexpressing CHO cells are cultured in RPMI containing 10% FBS, 50 μg/ml gentamycin and 0.5 mg/ml G418. Prior to stimulation, cells are rendered serum-free for 24 h. Stimulation is carried out for 10 min in serum-free DMEM containing 0.1 mg/ml of fatty-acid free BSA in the absence or presence of the various compounds or 51P. Protein lysates are prepared using a buffer containing (50 mM Tris pH 7.4, 150 mM NaCl, 10% glycerol, 1% Triton X-100, 2 mM EDTA, 2 mM EGTA, 40 mM β-glycerophosphate, 50 mM sodium fluoride, 10 mM sodium pyrophosphate, 2 mM dithiothreitol, 0.2 mM sodium orthovanadate). Cells are homogenized by one 5 sec burst in a MSE Ultrasonic Disintegrator, centrifuged and taken for protein determination. Equal amounts of protein are separated by SDS-PAGE (10% polyacrylamide gel), transferred to nitrocellulose membranes and subjected to Western blot analysis. Bands were stained using IRDye® secondary antibodies and visualized by the LICOR Odyssey® Fc Imaging system. Antibodies against phospho-Thr202/Tyr204-p42/p44-MAPK and phospho-Ser PKC substrate are from Cell Signaling, Frankfurt am Main, Germany. Polyclonal antisera against total p42 and total p44 were generated and characterized as previously described. (Huwiler, A.; Pfeilschifter, J. Br. J. Pharmacol. 1994, 113, 1455-1463; disclosure of which is incorporated herein by reference).

S1P receptor 2 = biological target: T2, S1P receptor 2 (Homo sapiens, UniProt O95136); experiment: S1P receptor activation in CHO cells, S1P2; assay type: cell-based; settings: CHO cells over-expressing human S1P2
T2 construct: expressed in transfected cells
T2 sequence (O95136 whole entry): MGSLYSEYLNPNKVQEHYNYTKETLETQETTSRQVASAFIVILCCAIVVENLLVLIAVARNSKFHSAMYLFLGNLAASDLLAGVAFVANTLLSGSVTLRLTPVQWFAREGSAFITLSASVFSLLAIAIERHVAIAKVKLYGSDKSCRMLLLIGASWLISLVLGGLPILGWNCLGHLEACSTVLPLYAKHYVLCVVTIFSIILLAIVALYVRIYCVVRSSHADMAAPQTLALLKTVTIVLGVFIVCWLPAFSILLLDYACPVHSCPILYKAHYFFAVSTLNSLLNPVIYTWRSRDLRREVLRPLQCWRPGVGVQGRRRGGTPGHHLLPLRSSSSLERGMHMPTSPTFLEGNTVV
Text: as §1, §2

[1] = tested on: Breast (MDA-MB-231) cancer cell line; experiment: IC50 in cancer cell lines (Table 3), breast; assay type: cell-based, human; settings: Mean ± SEM, n ≥ 3
Procedure: (§3) Having observed a suitable potency of some embodiments of the invention, including, at least with compounds 3-6, 14 in prostate cancer cell lines, other cancer cell lines were tested with these compounds. […] Compounds that were active in prostate cancer cell lines also killed BCR-Abl-positive leukemia cells with similar potency to FTY720.
(§4) Cell culture studies: Sup-B15 cells are maintained at 2-3 million/mL in RPMI 1640 (Mediatech) supplemented with 10% fetal calf serum (FCS, Sigma-Aldrich), 10 mM Hepes (Mediatech), 55 μM β-mercaptoethanol (Sigma-Aldrich), 2 mM L-glutamine (Mediatech), and antibiotics. All adherent cells are maintained at 70-80% confluence. Cell are cultured in the following media: PC3 & A549, Ham's F12K (Corning Cell Gro) supplemented with 10% FCS and antibiotics; DU145 cells, MEM (Corning Cell Gro) supplemented with 10% FCS, 1 mM sodium pyruvate (Mediatech), and antibiotics; SW620 & MDA-MB-231, DMEM (Corning Cell Gro) with 10% FCS, 1 mM sodium pyruvate (Mediatech), and antibiotics; Panc-1 cells, DMEM (Corning Cell Gro) supplemented with 10% FCS and antibiotics. All of the above cell lines are available from the ATCC.
(§5) Viability assays: Cell Titer Glo assays (Cell Titer Glo Luminescent Cell Viability Assay kit, cat #G7571, Promega Corporation) are performed in clear bottom 96-well black cell culture plates (cat #655090, Greiner Bio-One, NC, USA). After plating at 1,000 cells/well in volume of 100 μl, cells are left undisturbed for at least 24 h before drug addition. After 72 h, cells are prepared for analysis by adding 10 μl of 0.1% Triton-X100 in PBS with shaking for 1 min at room temperature (RT). Cell Titer-Glo cell lysis reagent (20 μl) is then added followed by 1 min of shaking and a 10 min incubation in the dark at RT. Luminescence is detected using an IVIS imaging system (IVIS Lumina II, Perkin Elmer, USA). […] IC50s are determined using GraphPad Prism (GraphPad Software, Inc, La Jolla, Calif.). SupB-15 viability was determined by flow cytometry. Cell Titer Glo assays were performed with the other cell lines.

[2] = tested on: PC3 prostate cancer cells; experiment: Cell Titer Glo proliferation assay in PC3; assay type: cell-based, human; settings: Cell Titer Glo, 72 h; Mean ± SEM, n ≥ 3; read-out: IC50 values in prostate cancer cell lines, PC3
Procedure: (§6) Previously presented compounds 1-4 (FIG. 23), compounds 5-8 (FIG. 28), and control compound FTY720 (FIG. 2) were used to treat the well-established PC3 and DU145 prostate cancer lines (FIG. 29 and Table 1). A Cell Titer Glo assay was performed to measure proliferation of the cancer lines.
as §4, §5

[3] = tested on: PC3 prostate cancer cells; experiment: Cell viability by vital dye exclusion and flow cytometry in PC3; assay type: cell-based, human; settings: vital dye exclusion (DAPI) and flow cytometry, 72 h
Procedure: Thus, to determine whether analogues in accordance with embodiments of the invention are cytotoxic, studies were conducted using vital dye exclusion and flow cytometry (Table 2).
as §5

S1P receptor 3 = biological target: T3, S1P receptor 3 (Homo sapiens, UniProt Q99500); experiment: S1P receptor activation in CHO cells, S1P3; assay type: cell-based; settings: CHO cells over-expressing human S1P3
T3 construct: expressed in transfected cells
T3 sequence (Q99500 whole entry): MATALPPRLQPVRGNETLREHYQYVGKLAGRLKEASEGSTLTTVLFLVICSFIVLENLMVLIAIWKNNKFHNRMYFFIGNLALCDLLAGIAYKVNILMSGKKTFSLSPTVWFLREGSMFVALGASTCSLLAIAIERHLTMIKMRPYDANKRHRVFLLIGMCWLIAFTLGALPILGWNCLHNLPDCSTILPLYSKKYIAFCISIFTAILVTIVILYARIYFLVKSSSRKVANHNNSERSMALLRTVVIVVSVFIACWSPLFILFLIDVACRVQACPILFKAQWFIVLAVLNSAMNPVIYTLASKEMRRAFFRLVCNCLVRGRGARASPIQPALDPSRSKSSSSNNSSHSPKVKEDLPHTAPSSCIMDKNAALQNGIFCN
Text: as §1, §2

[4] = tested on: Colon (SW-620) cancer cell line; experiment: IC50 in cancer cell lines (Table 3), colon; assay type: cell-based, human; settings: Mean ± SEM, n ≥ 3
Procedure: as §3, §4, §5

S1P receptor 1 = biological target: T4, S1P receptor 1 (Homo sapiens, UniProt P21453); experiment: S1P receptor activation in CHO cells, S1P1; assay type: cell-based; settings: CHO cells over-expressing human S1P1, 10 min stimulation, Western blot
T4 construct: expressed in transfected cells
T4 sequence (P21453 whole entry): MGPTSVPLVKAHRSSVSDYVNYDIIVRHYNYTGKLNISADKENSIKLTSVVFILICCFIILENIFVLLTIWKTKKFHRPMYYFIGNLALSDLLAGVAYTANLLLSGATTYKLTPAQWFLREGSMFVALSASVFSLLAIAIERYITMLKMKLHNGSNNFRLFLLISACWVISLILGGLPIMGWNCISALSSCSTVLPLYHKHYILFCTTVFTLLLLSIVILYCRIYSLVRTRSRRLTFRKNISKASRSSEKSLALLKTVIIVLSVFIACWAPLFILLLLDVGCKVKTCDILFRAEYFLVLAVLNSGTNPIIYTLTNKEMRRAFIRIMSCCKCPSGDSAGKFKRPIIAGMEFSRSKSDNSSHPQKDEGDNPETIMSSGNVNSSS
Text: as §1, §2

[5] = tested on: Pancreas (PANC-1) cancer cell line; experiment: IC50 in cancer cell lines (Table 3), pancreas; assay type: cell-based, human; settings: Mean ± SEM, n ≥ 3
Procedure: as §3, §4, §5

S1P receptor 5 = biological target: T5, S1P receptor 5 (Homo sapiens, UniProt Q9H228); experiment: S1P receptor activation in CHO cells, S1P5; assay type: cell-based; settings: CHO cells over-expressing human S1P5
T5 construct: expressed in transfected cells
T5 sequence (Q9H228 whole entry): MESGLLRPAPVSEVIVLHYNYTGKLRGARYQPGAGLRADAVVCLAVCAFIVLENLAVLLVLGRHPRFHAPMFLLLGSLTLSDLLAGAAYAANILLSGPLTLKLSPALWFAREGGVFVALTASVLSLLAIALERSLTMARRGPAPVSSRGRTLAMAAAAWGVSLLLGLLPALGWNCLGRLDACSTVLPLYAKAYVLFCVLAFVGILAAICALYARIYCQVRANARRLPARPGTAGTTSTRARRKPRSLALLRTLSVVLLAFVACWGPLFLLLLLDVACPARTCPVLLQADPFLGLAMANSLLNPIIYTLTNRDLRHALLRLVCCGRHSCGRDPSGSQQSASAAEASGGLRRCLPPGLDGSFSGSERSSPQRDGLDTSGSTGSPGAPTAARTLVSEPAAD
Text: as §1, §2

Leukemia (SupB-15) cells = experiment: IC50 in cancer cell lines (Table 3), leukemia; assay type: cell-based, human; settings: flow cytometry; Mean ± SEM, n ≥ 3
Procedure: as §3, §4, §5

[6] = tested on: DU145 prostate cancer cells; experiment: Cell Titer Glo proliferation assay in DU145; assay type: cell-based, human; settings: 72 h, Mean ± SEM, n ≥ 3, read-out: IC50 values in prostate cancer cell lines, DU145
Procedure: as §6, §4, §5

[7] = tested on: Lung (A-549) cancer cell line; experiment: IC50 in cancer cell lines (Table 3), lung; assay type: cell-based, human; settings: Mean ± SEM, n ≥ 3
Procedure: as §3, §4, §5

## CCCCCCCCc1ccc([C@@H]2CCN[C@H]2COC)cc1.Cl [Compound 14]
S1P receptor 4
  activation of S1P receptor 4: not able to activate
S1P receptor 2
  activation of S1P receptor 2: not able to activate
[1]
  IC50: 4 µM
[2]
  IC50: 1.9 ± 0.3 µM
[3]
  IC50: 4.6 ± 0.4 µM
S1P receptor 3
  activation of S1P receptor 3: not able to activate
[4]
  IC50: 2.7 ± 0.2 µM
S1P receptor 1
  activation of S1P receptor 1: not able to activate
[5]
  IC50: 4.8 ± 0.6 µM
S1P receptor 5
  activation of S1P receptor 5: not able to activate
Leukemia (SupB-15) cells
  IC50: 7.5 ± 0.4 µM
[6]
  IC50: 5.6 ± 0.1 µM
[7]
  IC50: 7.8 ± 1.8 µM
